Test results taken from US20150232876A1, “Use of a Receptor Kinase Having LysM Motifs in Order to Improve the Response of Plants to Lipochitooligosaccharides” (INSTITUT NATIONAL DE LA RECHERCHE AGRONOMIQUE, priority 2012, published 2015).

How the values were obtained:
[1] = target: PpLYR3 (Prunus persica, UniProt A0A251NBL6); test: Equilibrium, saturation and competition binding on PpLYR3 expressed in N. benthamiana leaves
Method: (§1) In non-legumes, PpLYR3, SILYR3 and AtLysM-RLK4 genes have been cloned, the corresponding proteins were expressed in N. benthamiana leaves, and their ability to bind to LCOs was determined by binding experiments at equilibrium, as described above for legumes LYR3 proteins.
The interaction of PpLYR3 with the Nod LCO-IV (^35S, C16:2Δ2, 9) factor has been characterized in more detail by means of saturation and competition experiments. The results obtained are illustrated in FIG. 9. […] Similarly, PpLYR3 specifically recognizes the LCOs as interaction with COs (CO-IV and CO-VIII) is of low affinity (Ki>5 μM).

[2] = target: LYR3 (Medicago truncatula, UniProt G7KAT5); test: Saturation and competitive binding on LYR3-YFP expressed in N. benthamiana leaf membrane fractions; conditions: LYR3-YFP in N. benthamiana leaf membranes; competition with 0.9 nM LCO-IV(35S, C16:2Δ2,9); read-out: Affinity (nM) for LYR3 (Ki)
LYR3, sequence (G7KAT5 entry or part of it): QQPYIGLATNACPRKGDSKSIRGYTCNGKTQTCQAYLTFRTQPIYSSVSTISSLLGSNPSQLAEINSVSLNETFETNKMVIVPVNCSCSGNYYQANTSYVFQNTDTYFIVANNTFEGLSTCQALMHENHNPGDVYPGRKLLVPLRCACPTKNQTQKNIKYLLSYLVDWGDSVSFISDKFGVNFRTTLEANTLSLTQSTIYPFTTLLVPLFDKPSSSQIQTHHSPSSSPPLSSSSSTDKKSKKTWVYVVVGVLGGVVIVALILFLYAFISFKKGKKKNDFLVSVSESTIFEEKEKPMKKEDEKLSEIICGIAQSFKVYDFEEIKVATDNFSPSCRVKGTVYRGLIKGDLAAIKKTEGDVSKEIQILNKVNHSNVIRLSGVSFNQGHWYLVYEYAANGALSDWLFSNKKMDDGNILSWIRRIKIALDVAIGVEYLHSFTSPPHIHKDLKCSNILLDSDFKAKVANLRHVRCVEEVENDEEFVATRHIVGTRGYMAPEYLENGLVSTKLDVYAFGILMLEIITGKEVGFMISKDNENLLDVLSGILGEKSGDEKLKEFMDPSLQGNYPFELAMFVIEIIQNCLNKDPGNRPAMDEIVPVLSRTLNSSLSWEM
Source text: Genes LYR3, LYK9 and LYR6 were inserted into a binary vector, fused in C-terminal with a fluorescent protein (Yellow Fluorescent Protein: YFP) and introduced into Nicotiana benthamiana leaves using agroinfiltration by Agrobacterium tumefaciens. Meanwhile, NFP and LYK3 genes which encode putative receptors […] Nod factors were inserted into the same vectors and expressed in the same conditions.
3 days after agro-infiltration, leaves of N. benthamiana expressing the different constructs were harvested and ground in liquid nitrogen. Membrane fractions were prepared from the ground material, using the same protocol as that described above for the preparation of microsomal fractions, except that 0.6% (w/v) of polyvinyl-polypyrrolidone were added to extraction buffer. After centrifugation at 3000×g, the supernatant was collected and centrifuged at 45000×g. The resulting (membrane fraction) pellet was resuspended in binding buffer, and stored at −80° C. in the presence of 10% or 50% glycerol, until use.
Membrane proteins were separated by 10% polyacrylamide gel electrophoresis in SDS, and transferred onto nitrocellulose membrane, and detection of recombinant proteins made using anti-GFP antibody. Meanwhile, the properties of specific binding to LCOs were assessed by equilibrium binding, as described in Example 1, using 0.8 to 2.4 nM of LCO-IV (^35S, C16:2Δ2, 9) +/−2 μM of unlabeled LCO-IV (S, C16: 2Δ2, 9), and 25 micrograms to 80 micrograms of membrane protein, depending of the expression level of the protein labeled with YFP.
To further characterize the binding properties of the protein LYR3, saturation binding experiments using LCO-IV (^35S, C16:2Δ2, 9) and competitive binding experiments in the presence of different COs or LCOs were performed.

[3] = tested on: 100 kDa polypeptide (MtNFBS2); test: Photolabeling of the 100 kDa polypeptide in membrane fractions, with excess competitors; type: binding, Medicago truncatula; conditions: 2 μM competitor, 5 nM azido ligand, dmi3 membrane fraction
Source text: To assess the molecular mass of the affine protein of Nod factors responsible for binding properties of MtNFBS2, a photolabeling with Nod factors analogs containing a photoactivatable group, which after irradiation in a given wavelength reactive species which can form a covalent bond with the surrounding molecules, has been taken. […] homologues of these molecules have been synthesized and labeled with ^35S to enable detection of the stable complex ligand/binding protein.
For photolabeling, 5 nM of radioactive and photoactivatable ligand, alone or in the presence of an excess (2 μM) different competitors were incubated in binding buffer, in the same conditions as described in Example 1 above for the binding experiments at equilibrium, with 300 micrograms of membrane protein fraction obtained from cultured cells of wild-type Medicago truncatula (A 17), or the dmi3 mutant of Medicago truncatula. After 1 hour of incubation, the samples were irradiated for 5 min at 254 nm or 10 min at 365 nm with a fluorescent tube at a distance of 4 cm. The free ligand was removed by centrifugation, and the membrane pellet was washed two times in binding buffer.
The membrane pellet proteins were separated by polyacrylamide gel electrophoresis in 10% SDS, and transferred onto nitrocellulose membrane, and detection was carried out by autoradiography.

[4] = tested on: LjNFR1; test: Equilibrium binding on receptor expressed in N. benthamiana leaves; design: species or system Lotus japonicus; conditions: LjNFR1, 1 nM radioligand
Source text: (§2) In legumes, MtLYR3 orthologs have been identified in P. sativum, P. vulgaris and L. japonicus. In G. max orthologs exist in duplicate due to a duplication of the genome. The corresponding genes have been cloned and sequenced. A few differences in sequence compared with sequences in the databases were found which could be explained by the use of different varieties of plants or by sequencing errors in databases. The cloned genes were introduced into binary vectors, in C-terminal fusion with the fluorescent protein YFP, and introduced into Nicotiana benthamiana leaves using agroinfiltration by Agrobacterium tumefaciens, as described above in Example 3. The membrane fractions were isolated, their protein content was analyzed by electrophoresis under denaturing conditions, followed by immunodetection using anti-GFP antibody as described in Example 3, and their ability to interact with LCOs was determined by equilibrium binding, as described in Example 1, in the presence of 1 nM LCO-IV (S^35, C16:2Δ2, 9). The value of specific binding is determined by the value of difference between the total binding and the nonspecific binding obtained for incubation in the presence of an excess (2 μM) of unlabeled ligand. […]

[5] = tested on: LjNFR5; test: as above; design: species or system Lotus japonicus; conditions: LjNFR5, 1 nM radioligand
Source text: as §2

[6] = target: T1, AtLysM-RLK4 (Arabidopsis thaliana, UniProt O64825); test: Equilibrium binding on AtLysM-RLK4 expressed in N. benthamiana leaves
T1 construct: YFP (implied by anti-GFP immunopurification); expressed in transfected cells; host or cells: Nicotiana benthamiana leaves, membrane fraction
T1 sequence (O64825 23-612): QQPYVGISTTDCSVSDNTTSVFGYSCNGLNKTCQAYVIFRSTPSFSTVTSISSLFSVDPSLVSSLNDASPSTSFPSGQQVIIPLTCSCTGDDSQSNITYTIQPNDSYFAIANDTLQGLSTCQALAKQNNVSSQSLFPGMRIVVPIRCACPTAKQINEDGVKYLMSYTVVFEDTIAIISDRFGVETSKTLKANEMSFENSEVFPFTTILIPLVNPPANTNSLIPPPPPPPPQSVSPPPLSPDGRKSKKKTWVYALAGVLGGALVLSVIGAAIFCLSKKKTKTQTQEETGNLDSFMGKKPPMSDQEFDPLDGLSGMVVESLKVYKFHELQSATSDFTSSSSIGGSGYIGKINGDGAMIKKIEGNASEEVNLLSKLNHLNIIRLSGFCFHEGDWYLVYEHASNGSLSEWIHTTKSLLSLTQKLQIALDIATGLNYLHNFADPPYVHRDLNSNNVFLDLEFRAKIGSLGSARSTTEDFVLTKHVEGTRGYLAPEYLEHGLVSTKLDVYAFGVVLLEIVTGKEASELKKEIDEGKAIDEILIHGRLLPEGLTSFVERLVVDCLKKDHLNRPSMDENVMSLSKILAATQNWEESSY
Method: as §1

[7] = tested on: SILYR3; test: Equilibrium binding on SILYR3 expressed in N. benthamiana leaves; design: species or system Solanum lycopersicum
Method: as §1

[8] = target: GmLYR3-11 (Glycine max, UniProt I1LHL9); test: Equilibrium, saturation and competitive binding on MtLYR3 ortholog expressed in N. benthamiana leaves; conditions: GmLYR3-11, 1 nM radioligand
GmLYR3-11, sequence (I1LHL9 entry or part of it): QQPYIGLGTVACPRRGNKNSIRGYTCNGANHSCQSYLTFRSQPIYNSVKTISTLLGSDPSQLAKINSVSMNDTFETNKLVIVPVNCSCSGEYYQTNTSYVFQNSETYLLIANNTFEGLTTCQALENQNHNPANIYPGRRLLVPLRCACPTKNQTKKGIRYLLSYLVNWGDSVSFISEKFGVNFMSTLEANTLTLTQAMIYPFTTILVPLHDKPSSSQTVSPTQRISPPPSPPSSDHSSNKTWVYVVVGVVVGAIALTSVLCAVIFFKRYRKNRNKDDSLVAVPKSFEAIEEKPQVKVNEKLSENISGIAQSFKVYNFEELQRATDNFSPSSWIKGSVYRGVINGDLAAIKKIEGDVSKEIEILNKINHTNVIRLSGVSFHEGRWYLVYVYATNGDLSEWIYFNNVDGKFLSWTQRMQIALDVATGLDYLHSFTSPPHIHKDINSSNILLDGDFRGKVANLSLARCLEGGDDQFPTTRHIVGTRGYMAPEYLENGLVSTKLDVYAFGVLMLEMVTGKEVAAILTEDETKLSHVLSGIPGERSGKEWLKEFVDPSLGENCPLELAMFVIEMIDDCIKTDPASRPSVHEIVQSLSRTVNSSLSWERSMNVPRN
Source text: (§3) In legumes, MtLYR3 orthologs have been identified in P. sativum, P. vulgaris and L. japonicus. In G. max orthologs exist in duplicate due to a duplication of the genome. The corresponding genes have been cloned and sequenced. A few differences in sequence compared with sequences in the databases were found which could be explained by the use of different varieties of plants or by sequencing errors in databases. The cloned genes were introduced into binary vectors, in C-terminal fusion with the fluorescent protein YFP, and introduced into Nicotiana benthamiana leaves using agroinfiltration by Agrobacterium tumefaciens, as described above in Example 3. The membrane fractions were isolated, their protein content was analyzed by electrophoresis under denaturing conditions, followed by immunodetection using anti-GFP antibody as described in Example 3, and their ability to interact with LCOs was determined by equilibrium binding, as described in Example 1, in the presence of 1 nM LCO-IV (S^35, C16:2Δ2, 9). The value of specific binding is determined by the value of difference between the total binding and the nonspecific binding obtained for incubation in the presence of an excess (2 μM) of unlabeled ligand. For comparison, the ability to interact of LjNFR5 and LjNFR1 receptors, identified in L. japonicus to play a role in nodulation by a genetic approach (MADSEN et al, Nature, 425, 637-40, 2003. RADUTOIU et al., Nature, 425, 585-92, 2003a) and respective orthologs of LYK3 and NFP in M. truncatula was determined under the same conditions.
(§4) To further characterize the binding properties of MtLYR3 orthologs to LCOs, saturation and competitive binding experiments in the presence of different COs or LCOs were performed.

[9] = target: PvLYR3 (Phaseolus vulgaris, UniProt V7CFC1); test: as above; conditions: PvLYR3, 1 nM radioligand
PvLYR3, sequence (V7CFC1 entry or part of it): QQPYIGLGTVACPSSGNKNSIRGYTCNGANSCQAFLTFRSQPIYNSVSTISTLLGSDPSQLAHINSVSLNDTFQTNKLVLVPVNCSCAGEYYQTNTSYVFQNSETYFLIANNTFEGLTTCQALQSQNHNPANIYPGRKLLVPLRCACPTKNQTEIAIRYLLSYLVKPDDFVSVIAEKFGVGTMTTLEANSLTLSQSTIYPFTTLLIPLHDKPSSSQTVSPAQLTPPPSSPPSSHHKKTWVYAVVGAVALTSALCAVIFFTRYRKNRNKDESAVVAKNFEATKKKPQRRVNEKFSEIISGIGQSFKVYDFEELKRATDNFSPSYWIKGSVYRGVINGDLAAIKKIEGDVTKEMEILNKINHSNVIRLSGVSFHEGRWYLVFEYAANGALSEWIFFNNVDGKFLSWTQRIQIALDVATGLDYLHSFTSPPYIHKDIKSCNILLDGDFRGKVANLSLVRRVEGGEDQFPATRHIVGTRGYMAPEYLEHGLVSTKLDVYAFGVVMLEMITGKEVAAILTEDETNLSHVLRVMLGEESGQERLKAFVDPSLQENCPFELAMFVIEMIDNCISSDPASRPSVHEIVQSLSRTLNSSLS
Source text: as §3, §4

[10] = target: LjLYS12 (Lotus japonicus, UniProt D3KTZ9); test: as above; conditions: LjLYS12, 1 nM radioligand
LjLYS12, sequence (D3KTZ9 entry or part of it): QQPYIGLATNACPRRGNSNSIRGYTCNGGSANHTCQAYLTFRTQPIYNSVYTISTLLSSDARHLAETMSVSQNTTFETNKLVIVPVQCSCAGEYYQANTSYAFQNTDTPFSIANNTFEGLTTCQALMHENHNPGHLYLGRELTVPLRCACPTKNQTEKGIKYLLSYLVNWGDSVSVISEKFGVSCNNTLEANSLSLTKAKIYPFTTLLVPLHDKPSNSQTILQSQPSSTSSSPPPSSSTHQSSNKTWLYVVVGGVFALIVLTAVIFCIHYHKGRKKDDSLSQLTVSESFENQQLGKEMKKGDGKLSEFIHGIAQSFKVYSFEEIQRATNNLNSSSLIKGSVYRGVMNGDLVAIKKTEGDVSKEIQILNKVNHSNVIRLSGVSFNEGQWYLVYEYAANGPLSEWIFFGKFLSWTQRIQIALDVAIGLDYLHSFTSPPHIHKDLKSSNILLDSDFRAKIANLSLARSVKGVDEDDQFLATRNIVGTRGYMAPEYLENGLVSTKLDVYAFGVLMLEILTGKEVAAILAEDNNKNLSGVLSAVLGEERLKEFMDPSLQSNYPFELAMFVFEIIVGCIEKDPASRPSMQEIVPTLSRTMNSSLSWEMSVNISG
Source text: as §3, §4

[11] = target: GmLYR3-1 (Glycine max, UniProt A5YJW2); test: as above; conditions: GmLYR3-1, 1 nM radioligand
GmLYR3-1, sequence (A5YJW2 entry or part of it): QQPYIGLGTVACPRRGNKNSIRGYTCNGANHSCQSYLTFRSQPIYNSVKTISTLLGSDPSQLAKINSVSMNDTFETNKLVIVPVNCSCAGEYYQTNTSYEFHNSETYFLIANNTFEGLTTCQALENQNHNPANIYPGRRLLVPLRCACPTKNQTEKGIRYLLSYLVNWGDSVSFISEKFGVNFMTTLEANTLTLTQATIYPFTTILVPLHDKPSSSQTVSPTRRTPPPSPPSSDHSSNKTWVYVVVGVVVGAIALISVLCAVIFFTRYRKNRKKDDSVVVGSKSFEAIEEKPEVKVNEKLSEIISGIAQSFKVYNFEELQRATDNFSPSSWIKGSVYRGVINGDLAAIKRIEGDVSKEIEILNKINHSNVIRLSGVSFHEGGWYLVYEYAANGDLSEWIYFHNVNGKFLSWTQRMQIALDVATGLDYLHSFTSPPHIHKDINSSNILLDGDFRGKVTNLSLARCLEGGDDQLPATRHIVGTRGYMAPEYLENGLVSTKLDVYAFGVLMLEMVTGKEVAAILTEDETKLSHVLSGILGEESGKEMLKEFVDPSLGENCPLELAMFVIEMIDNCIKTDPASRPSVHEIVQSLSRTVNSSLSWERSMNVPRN
Source text: as §3, §4

[12] = target: PsLYR3 (Lathyrus oleraceus, UniProt A0A9D5BD18); test: as above; design: species or system Pisum sativum; conditions: PsLYR3, 1 nM radioligand
PsLYR3, sequence (A0A9D5BD18 entry or part of it): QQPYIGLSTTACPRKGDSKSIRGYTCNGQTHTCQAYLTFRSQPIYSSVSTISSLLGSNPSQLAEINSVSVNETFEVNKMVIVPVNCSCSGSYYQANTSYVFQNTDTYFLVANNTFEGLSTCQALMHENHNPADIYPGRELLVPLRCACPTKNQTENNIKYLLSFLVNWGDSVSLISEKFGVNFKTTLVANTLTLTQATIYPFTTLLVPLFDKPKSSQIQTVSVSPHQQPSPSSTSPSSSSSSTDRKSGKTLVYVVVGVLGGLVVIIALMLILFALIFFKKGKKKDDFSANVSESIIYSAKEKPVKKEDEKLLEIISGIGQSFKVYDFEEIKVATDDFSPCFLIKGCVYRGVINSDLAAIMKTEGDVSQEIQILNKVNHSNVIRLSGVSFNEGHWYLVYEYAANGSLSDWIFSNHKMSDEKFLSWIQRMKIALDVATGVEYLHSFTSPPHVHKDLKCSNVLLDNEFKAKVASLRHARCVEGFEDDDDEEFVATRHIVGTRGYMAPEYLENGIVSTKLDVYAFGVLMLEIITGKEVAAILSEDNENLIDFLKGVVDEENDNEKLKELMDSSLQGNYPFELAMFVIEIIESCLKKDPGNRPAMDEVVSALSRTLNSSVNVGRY
Source text: as §3, §4

PpLYR3, sequence (A0A251NBL6 entry or part of it): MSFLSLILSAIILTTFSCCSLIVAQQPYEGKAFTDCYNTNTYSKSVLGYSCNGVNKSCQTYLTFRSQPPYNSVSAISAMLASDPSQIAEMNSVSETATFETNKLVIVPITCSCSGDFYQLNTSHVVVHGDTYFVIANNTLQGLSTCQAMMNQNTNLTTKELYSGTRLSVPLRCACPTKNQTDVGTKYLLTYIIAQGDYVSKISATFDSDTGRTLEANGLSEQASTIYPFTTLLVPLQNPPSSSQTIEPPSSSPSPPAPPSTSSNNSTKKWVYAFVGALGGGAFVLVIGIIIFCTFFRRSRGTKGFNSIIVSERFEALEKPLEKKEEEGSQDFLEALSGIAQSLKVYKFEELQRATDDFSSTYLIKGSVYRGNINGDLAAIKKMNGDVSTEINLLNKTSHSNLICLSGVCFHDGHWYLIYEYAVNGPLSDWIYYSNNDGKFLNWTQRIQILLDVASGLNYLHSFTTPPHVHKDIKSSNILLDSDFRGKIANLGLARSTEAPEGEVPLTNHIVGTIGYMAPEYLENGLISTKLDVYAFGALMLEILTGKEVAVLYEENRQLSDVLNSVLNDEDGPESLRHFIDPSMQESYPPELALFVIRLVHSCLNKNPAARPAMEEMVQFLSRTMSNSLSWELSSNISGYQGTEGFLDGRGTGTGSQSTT

SMILES	Ki ([1]; PpLYR3, competition)	Ki [2]	binding of the radiolabeled photoactivatable ligand to the 100 kDa polypeptide in presence of excess competitor [3]	binding activity of membrane fractions (interaction with radioligand) [4]	binding activity of membrane fractions (interaction with radioligand) [5]	binding activity of membrane fractions (interaction with radioligand) [6]	binding activity of membrane fractions (interaction with radioligand) ([1]; PpLYR3)	Kd ([1]; PpLYR3, saturation)	binding activity of membrane fractions (interaction with radioligand) [7]	binding activity of membrane fractions (interaction with radioligand) [8]	binding activity of membrane fractions (interaction with radioligand) [9]	binding activity of membrane fractions (interaction with radioligand) [10]	binding activity of membrane fractions (interaction with radioligand) [11]	binding activity of membrane fractions (interaction with radioligand) [12]
CC(=O)N[C@H]1[C@H](O[C@H]2[C@H](O)[C@@H](NC(C)=O)C(O)O[C@@H]2CO)O[C@H](CO)[C@@H](O[C@@H]2O[C@H](CO)[C@@H](O[C@@H]3O[C@H](CO)[C@@H](O)[C@H](O)[C@H]3NC(C)=O)[C@H](O)[C@H]2NC(C)=O)[C@@H]1O (some centres unmarked) [CO-IV, chitotetraose]	> 5000 nM	> 5000 nM	not	–	–	–	–	–	–	–	–	–	–	–
CCCCCC/C=C\CCCCC/C=C/C(=O)N[C@H]1[C@H](O[C@H]2[C@H](O)[C@@H](NC(C)=O)[C@H](O[C@H]3[C@H](O)[C@@H](NC(C)=O)[C@H](O[C@H]4[C@H](O)[C@@H](NC(C)=O)C(O)O[C@@H]4COS(=O)(=O)O)O[C@@H]3CO)O[C@@H]2CO)O[C@H](CO)[C@@H](O)[C@@H]1O (some centres unmarked) [LCO-IV (^35S, C16:2Δ2, 9)]	–	–	–	no interaction	no interaction	no interaction	interacts	15 nM	very low	interact	interact	interact	interact	interact
